From publication PMC12058161, “The plant matrix of Artemisia annua L. for the treatment of malaria: Pharmacodynamic and pharmacokinetic studies” (PLOS One, 2025)
Several values for one entry are separate records, joined by “and”; a condition that tells them apart may be missing. Equal entries are not always repeated. Where two headings read alike, the source gives them in different places.

Legend:
Caco-2 cells = assay: Cytotoxicity in Caco-2 cells, CCK-8 assay; format: cell-based, human; conditions: for Cell survival rate%: mean; for cck-8 mean (survival fraction): mean of 6
How it was run: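 Caco-2 cells, pre-grown 48 h, were exposed to compounds for 48 h at 37 °C with 0.05% v/v DMSO final. Viability was measured by CCK-8 (2 h, absorbance 450 nm) relative to negative-control cells.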

[1] = Stability of the five compounds in SD rat plasma (QC samples, UHPLC-ESI-MS/MS); format: in vitro ADME; conditions: for 3 freeze-thaw cycles mean ± SD / 7 days at -80°C mean ± SD / Room temperature 24h mean ± SD: SD rat plasma QC sample; for stability, Accuracy (measured versus nominal concentration) / stability, mean ± SD (measured concentration): SD rat plasma, n=5
[2] = Bidirectional transport of ART across Caco-2 cell monolayers (LC-MS/MS); format: in vitro ADME, human; conditions: human, Caco-2 monolayer, n = 3
Description: The human epithelial cell line Caco-2 serves as a widely recognized model for the intestinal epithelial barrier, frequently utilized in the assessment of drug absorption and transport mechanisms. In this study, we evaluated drug absorption and distribution in vitro with the help of the Caco-2 cell model. Caco-2 cells were purchased from the Chinese Academy of Medical Sciences (Beijing, China, Resource No. 3111C0001CCC000100). The cells were resuscitated and inserted into culture flasks. Caco-2 cells were passaged with DMEM high glucose medium containing 10% (V/V) FBS, 1% (V/V) non-essential amino acid solution and 100 U/mL penicillin-streptomycin double antibiotic solution, and cultured at 37°C in a 5% CO2 incubator. […] The integrity of the cell monolayer was checked by measuring the transmembrane electrical resistance (TEER) of the monolayer cells with a Millicell-ERS electrode (Millipore Corp., Billerica, MA, USA). Caco-2 cells were used for transport experiments 17-21 days after inoculation. Besides, only monolayers with TEER values above 400 Ω/cm^2 were used in the study. […] To prepare drug-treated Caco-2 cell monolayers, Caco-2 cells cultured in Transwell® inserts were aseptically treated on day 21 with 10 μM of […] and nACTs. […] The excitation wavelength was set at 485 nm, and the emission wavelength at 535 nm. […] The efflux ratio was calculated using the Papp (BL-AP) to Papp (AP-BL) ratio. […] The solvent gradient was 65%B-95%B for 0-5 min; 95%B for 5-6 min; and 35%B for 6-9 min.

[3] = male, Sprague Dawley, rat, in vivo
in vivo = conditions: male, Sprague Dawley, rat, po; for MRT last: MRT(0-t); for MRT inf: MRT(0-∞)
[4] = Caco-2, concentration 10 μmol/L
[5] = Caco-2, concentration 20 μmol/L
[6] = Caco-2, concentration 40 μmol/L
[7] = Caco-2, concentration 80 μmol/L
[8] = nominal 40 ng/mL, 3 freeze-thaw cycles
[9] = nominal 40 ng/mL, 7 days at -80°C
[10] = nominal 1000 ng/mL, 3 freeze-thaw cycles
[11] = nominal 1000 ng/mL, 7 days at -80°C
[12] = nominal 5000 ng/mL, 3 freeze-thaw cycles
[13] = nominal 5000 ng/mL, 7 days at -80°C
[14] = nominal 40 ng/mL, Room temperature 24h
[15] = nominal 1000 ng/mL, Room temperature 24h
[16] = nominal 5000 ng/mL, Room temperature 24h
[17] = Caco-2, ART given as nACTs equivalent to 10 μM ART

C[C@@H]1CC[C@H]2[C@@H](C)C(=O)O[C@@H]3O[C@@]4(C)CC[C@@H]1[C@]32OO4 [ART, Artemisinin, reference compound]
Cell survival rate%, single replicate (Caco-2 cells; Caco-2, 5μmol/L): 82.52% and 83.77% and 87.9% and 78.48% and 85.79% and 77.82% | Cell survival rate%, single replicate (Caco-2 cells; Caco-2, 10μmol/L): 91.57% and 89.14% and 82.1% and 68.6% and 78.83% and 84.29% | Cell survival rate%, single replicate (Caco-2 cells; Caco-2, 20μmol/L): 80.46% and 80.92% and 80.32% and 81.46% and 82.88% and 85.89% | Cell survival rate%, single replicate (Caco-2 cells; Caco-2, 40μmol/L): 70.44% and 87.86% and 77.89% and 75.6% and 92.55% and 87.29% | Cell survival rate%, single replicate (Caco-2 cells; Caco-2, 80μmol/L): 82.12% and 82.82% and 84.32% and 77.9% and 76.8% and 84.01% | cck-8 cell survival as fraction, single replicate (Caco-2 cells; Caco-2, concentration 5 μmol/L): 0.8252 and 0.8377 and 0.879 and 0.7848 and 0.8579 and 0.7782 | Cell survival rate% (Caco-2 cells; Caco-2, concentration 5 μmol/L): 82.71% | cck-8 mean (survival fraction) (Caco-2 cells; Caco-2, concentration 5 μmol/L): 0.827 | cck-8 cell survival as fraction, single replicate (Caco-2 cells; [4]): 0.9157 and 0.8914 and 0.821 and 0.686 and 0.7883 and 0.8429 | Cell survival rate% (Caco-2 cells; [4]): 82.42% | cck-8 mean (survival fraction) (Caco-2 cells; [4]): 0.824 | cck-8 cell survival as fraction, single replicate (Caco-2 cells; [5]): 0.8046 and 0.8092 and 0.8032 and 0.8146 and 0.8288 and 0.8589 | Cell survival rate% (Caco-2 cells; [5]): 81.99% | cck-8 mean (survival fraction) (Caco-2 cells; [5]): 0.820 | cck-8 cell survival as fraction, single replicate (Caco-2 cells; [6]): 0.7044 and 0.8786 and 0.7789 and 0.756 and 0.9255 and 0.8729 | Cell survival rate% (Caco-2 cells; [6]): 81.94% | cck-8 mean (survival fraction) (Caco-2 cells; [6]): 0.819 | cck-8 cell survival as fraction, single replicate (Caco-2 cells; [7]): 0.8212 and 0.8282 and 0.8432 and 0.779 and 0.768 and 0.8401 | Cell survival rate% (Caco-2 cells; [7]): 81.33% | cck-8 mean (survival fraction) (Caco-2 cells; [7]): 0.813 | Stability in plasma, measured concentration (mean ± SD) ([1]; 3 freeze-thaw cycles, QC concentration 40 ng/mL): 38.5 ± 2.35 ng/mL | Stability in plasma, measured concentration (mean ± SD) ([1]; 3 freeze-thaw cycles, QC concentration 1000 ng/mL): 1053 ± 29.9 ng/mL | Stability in plasma, measured concentration (mean ± SD) ([1]; 3 freeze-thaw cycles, QC concentration 5000 ng/mL): 4629 ± 113 ng/mL | Stability in plasma, measured concentration (mean ± SD) ([1]; 7 days at -80°C, QC concentration 40 ng/mL): 40.3 ± 0.80 ng/mL | Stability in plasma, measured concentration (mean ± SD) ([1]; 7 days at -80°C, QC concentration 1000 ng/mL): 1051 ± 29.5 ng/mL | Stability in plasma, measured concentration (mean ± SD) ([1]; 7 days at -80°C, QC concentration 5000 ng/mL): 4673 ± 65.9 ng/mL | Stability, measured concentration, mean ± SD ([1]; QC sample 40 ng/mL, 3 freeze-thaw cycles): 38.5 ± 2.35 ng/mL | Stability, measured concentration, mean ± SD ([1]; QC sample 40 ng/mL, 7 days at -80°C): 40.3 ± 0.80 ng/mL | Stability, measured concentration, mean ± SD ([1]; QC sample 40 ng/mL, Room temperature 24h): 41.1 ± 1.49 ng/mL | Stability, measured concentration, mean ± SD ([1]; QC sample 1000 ng/mL, 3 freeze-thaw cycles): 1053 ± 29.9 ng/mL | Stability, measured concentration, mean ± SD ([1]; QC sample 1000 ng/mL, 7 days at -80°C): 1051 ± 29.5 ng/mL | Stability, measured concentration, mean ± SD ([1]; QC sample 1000 ng/mL, Room temperature 24h): 1070 ± 40.9 ng/mL | Stability, measured concentration, mean ± SD ([1]; QC sample 5000 ng/mL, 3 freeze-thaw cycles): 4629 ± 113 ng/mL | Stability, measured concentration, mean ± SD ([1]; QC sample 5000 ng/mL, 7 days at -80°C): 4673 ± 65.9 ng/mL | Stability, measured concentration, mean ± SD ([1]; QC sample 5000 ng/mL, Room temperature 24h): 5229 ± 418 ng/mL | Stability in plasma, measured concentration (mean ± SD) ([1]; Room temperature 24h, QC concentration 40 ng/mL): 41.1 ± 1.49 ng/mL | Stability in plasma, measured concentration (mean ± SD) ([1]; Room temperature 24h, QC concentration 1000 ng/mL): 1070 ± 40.9 ng/mL | Stability in plasma, measured concentration (mean ± SD) ([1]; Room temperature 24h, QC concentration 5000 ng/mL): 5229 ± 418 ng/mL | 3 freeze-thaw cycles mean ± SD [1, 8]: 38.5 ± 2.35 ng/mL | 7 days at -80°C mean ± SD [1, 9]: 40.3 ± 0.80 ng/mL | Room temperature 24h mean ± SD ([1]; nominal 40 ng/mL): 41.1 ± 1.49 ng/mL | 3 freeze-thaw cycles mean ± SD [1, 10]: 1053 ± 29.9 ng/mL | 7 days at -80°C mean ± SD [1, 11]: 1051 ± 29.5 ng/mL | Room temperature 24h mean ± SD ([1]; nominal 1000 ng/mL): 1070 ± 40.9 ng/mL | 3 freeze-thaw cycles mean ± SD [1, 12]: 4629 ± 113 ng/mL | 7 days at -80°C mean ± SD [1, 13]: 4673 ± 65.9 ng/mL | Room temperature 24h mean ± SD ([1]; nominal 5000 ng/mL): 5229 ± 418 ng/mL | stability, Accuracy (measured versus nominal concentration) [1, 8]: 96.14% | stability, mean ± SD (measured concentration) [1, 8]: 38.5 ± 2.35 ng/mL and 38.46 ng/mL | stability, Accuracy (measured versus nominal concentration) [1, 9]: 100.80% | stability, mean ± SD (measured concentration) [1, 9]: 40.3 ± 0.80 ng/mL and 40.32 ng/mL | stability, Accuracy (measured versus nominal concentration) [1, 14]: 102.70% | stability, mean ± SD (measured concentration) [1, 14]: 41.1 ± 1.49 ng/mL and 41.08 ng/mL | stability, Accuracy (measured versus nominal concentration) [1, 10]: 105.28% | stability, mean ± SD (measured concentration) [1, 10]: 1053 ± 29.9 ng/mL and 1052.79 ng/mL | stability, Accuracy (measured versus nominal concentration) [1, 11]: 105.14% | stability, mean ± SD (measured concentration) [1, 11]: 1051 ± 29.5 ng/mL and 1051.42 ng/mL | stability, Accuracy (measured versus nominal concentration) [1, 15]: 106.95% | stability, mean ± SD (measured concentration) [1, 15]: 1070 ± 40.9 ng/mL and 1069.53 ng/mL | stability, Accuracy (measured versus nominal concentration) [1, 12]: 92.59% | stability, mean ± SD (measured concentration) [1, 12]: 4629 ± 113 ng/mL and 4629.47 ng/mL | stability, Accuracy (measured versus nominal concentration) [1, 13]: 93.45% | stability, mean ± SD (measured concentration) [1, 13]: 4673 ± 65.9 ng/mL and 4672.51 ng/mL | stability, Accuracy (measured versus nominal concentration) [1, 16]: 104.57% | stability, mean ± SD (measured concentration) [1, 16]: 5229 ± 418 ng/mL and 5228.53 ng/mL | Papp A→B at 180 min, 10 μM ([2]; Caco-2, 10 μM ART alone (PU)): 7.49 ± 0.35 ×10⁻⁶ cm/s | Papp B→A at 180 min, 10 μM ([2]; Caco-2, 10 μM ART alone (PU)): 82.3 ± 2.1 ×10⁻⁶ cm/s | Papp A→B at 180 min, 10 μM [2, 17]: 8.42 ± 0.37 ×10⁻⁶ cm/s | Papp B→A at 180 min, 10 μM [2, 17]: 52.7 ± 2.3 ×10⁻⁶ cm/s | plasma concentration (plasma concentration-time curve) ([3]; 0.08 h): 180.137 | plasma concentration (plasma concentration-time curve) ([3]; 0.5 h): 247.263 | plasma concentration (plasma concentration-time curve) ([3]; 1 h): 173.84 | plasma concentration (plasma concentration-time curve) ([3]; 1.5 h): 81.963 | plasma concentration (plasma concentration-time curve) ([3]; 2 h): 51.011 | plasma concentration (plasma concentration-time curve) ([3]; 3 h): 33.992 | plasma concentration (plasma concentration-time curve) ([3]; 4 h): 27.897 | Vz ([3]; po, 100 mg/kg): 0.08 ± 0.03 L | CL ([3]; po, 352 mg/kg): 0.032 ± 0.018 L/h | Vz ([3]; po, 352 mg/kg): 0.061 ± 0.008 L | AUC(0-inf) (in vivo; 100 mg/kg): 418 ± 133 ng·h/mL | AUC(0-t) (in vivo; 100 mg/kg): 386 ± 128 ng·h/mL | MRT last (in vivo; 100 mg/kg): 1.18 ± 0.255 h | MRT inf (in vivo; 100 mg/kg): 1.67 ± 0.333 h | AUC(0-inf) (in vivo; 352 mg/kg): 816 ± 383 ng·h/mL | AUC(0-t) (in vivo; 352 mg/kg): 763 ± 345 ng·h/mL | Cmax (in vivo; 352 mg/kg, Cmax): 513 ± 186 ng/mL | MRT last (in vivo; 352 mg/kg): 1.71 ± 0.513 h | MRT inf (in vivo; 352 mg/kg): 2.54 ± 0.785 h | Tmax (in vivo; 352 mg/kg, Tmax): 0.388 ± 0.328 h
